Measurements published in patent publication US7795220B2, “Conformationally constrained parathyroid hormones with alpha-helix stabilizers” (The General Hospital Corporation, priority 2003, dated 2010).
Each block holds one molecule with its values, some of them ahead of it. Non-standard residues stand in square brackets, D forms with d. Residues, ends and D or L forms follow the SMILES beside them. hArg = N=C(N)NCCCC[C@H](N)C(=O)O; Ac5c = NC1(C(=O)O)CCCC1; Deg = CCC(N)(CC)C(=O)O; Aib = CC(C)(N)C(=O)O

Legend:
P1R [1] = test: Antagonism of agonist-induced cAMP activity; type: cell-based; details: analog at 10^−5 M, agonist at 10^−9 M
Protocol: Polypeptides described herein can be screened for their agonistic or antagonistic properties using the cAMP accumulation assay. Cells expressing PTH-1 receptor on the cell surface are incubated with native PTH(1-84) (SEQ. ID. NO. 18) for 5-60 minutes at 37° C., in the presence of 2 mM IBMX (3-isobutyl-1-methyl-xanthine, Sigma, St. Louis, Mo.). Cyclic AMP accumulation is measured by specific radio-immunoassay. A compound that competes with native PTH(1-84) or PTH(1-34) (SEQ. ID. NO. 19) for binding to the PTH-1 receptor, and that inhibits the effect of native PTH(1-84) or PTH(1-34) on cAMP accumulation, is considered a competitive antagonist. Such a compound would be useful for treating hypercalcemia.
Ligands that function as antagonists can be useful for treating hyperparathyroidism. Analogs of [Ac5c^1, Aib^3, M]PTH(1-14)(parent) (SEQ. ID. NO. 15) containing N-terminal modifications predicted to dissociate signaling and binding affinity (e.g. desamino-1, Trp-2, Bpa-2, Arg-2, Deg-1,3).

[2] = target: T1, P1R (recombinant P1R chimera) in HKRK-B28 cells (UniProt P25107+P25961, A364S/A509S/A517P/A524T/DEL519-521/E344G/G506A/H528S/I365V/I416T/I429T/K402R/K465R/L320I/M408V/N352H/S511P/S523T/T335G/T421L/T487S/V367L/V433I); test: biochemical; type: binding, opposum/rat chimera
T1 construct: the opposum P1R from the N-terminus to the mid region of TM3; the rat P1R from the mid region of TM3 to the C-terminus; expressed in transfected cells
T1 sequence (P25107+P25961 fused with the stated changes): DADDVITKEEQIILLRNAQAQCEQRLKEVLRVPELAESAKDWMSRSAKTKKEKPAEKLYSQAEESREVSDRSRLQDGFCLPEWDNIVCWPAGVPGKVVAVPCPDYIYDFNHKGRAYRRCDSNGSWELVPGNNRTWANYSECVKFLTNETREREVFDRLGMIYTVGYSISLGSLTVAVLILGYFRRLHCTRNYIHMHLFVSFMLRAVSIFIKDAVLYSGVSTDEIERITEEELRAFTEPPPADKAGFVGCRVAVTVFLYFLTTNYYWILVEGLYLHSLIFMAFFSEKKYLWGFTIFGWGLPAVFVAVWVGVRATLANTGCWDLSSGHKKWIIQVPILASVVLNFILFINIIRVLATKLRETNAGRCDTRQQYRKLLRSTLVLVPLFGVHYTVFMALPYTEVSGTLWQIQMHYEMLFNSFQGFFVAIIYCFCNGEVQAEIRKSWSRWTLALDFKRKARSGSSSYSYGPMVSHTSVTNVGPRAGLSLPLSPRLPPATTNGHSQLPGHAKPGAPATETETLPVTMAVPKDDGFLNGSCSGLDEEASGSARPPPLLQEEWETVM
Source text: (§1) Cell Culture. The cell line HKRK-B28 (Takasu, H., et al., J. Bone Miner. Res. 14:11-20 (1999)) was derived from the porcine kidney cell line, LLC-PK1 by stable transfection with plasmid DNA encoding a recombinant P1R chimera comprised of the opposum P1R from the N-terminus to the mid region of TM3 and the rat P1R from the mid region of TM3 to the C-terminus. The surface density of the P1R in these cells is ˜280,000 receptors per cell. The clonal cell line LdelNt-2 was derived from LLC-PK, cells via stable transfection with a plasmid encoding P1R-delNt, a recombinant human PTH-1 receptor construct in which most of the amino-terminal extracellular domain is deleted. These cells, as well as COS-7 cells and SaOS-2-B10 cells, were cultured at […] in T-75 flasks ([…]) in Dulbecco's modified Eagle's medium (DMEM) supplemented with fetal bovine serum (10%), penicillin G (20 units/ml), streptomycin sulfate (20 μg/ml) and amphotericin B (0.05 μg/ml) in a humidified atmosphere containing 5% CO2. Stock solutions of EGTA/trypsin and antibiotics were from GLBCO; fetal bovine serum was from Hyclone Laboratories (Logan, Utah). COS-7 cells sub-cultured in 24-well plates were transfected with plasmid DNA (200 ng per well) encoding the wild-type human P1R or truncated human P1R deleted for residues (24-181) (Shimizu, M., et al., J. Biol. Chem. 275:21836-21843 (2000)) that was purified by cesium chloride/ethidium bromide density gradient centrifugation, and FuGENE 6 transfection reagent (Roche Indianapolis Ind.) according to the manufacturer's recommended procedure. All cells, in 24-well plates, were treated with fresh media and shifted to 33° C. for 12 to 24 h prior to assay.
Competition Binding. Binding reactions were performed with HKRK-B28 cells or in COS-7 cells in 24-well plates. The cells were rinsed with 0.5 mL of binding buffer, and then treated successively with 100 μL binding buffer, 100 μL of binding buffer containing various amounts of unlabeled competitor ligand, and 100 μL of binding buffer containing ca. 100,000 cpm of ^125I-[Aib^1,3,Nle^8,Gln^10,Har^11,Ala^12,Trp^14,Arg^19,Tyr^21]rPTH(1-21) (SEQ. ID. NO. 36) (ca. 26 fmol; final volume=300 μL). Incubations were 4 to 6 h at 4° C., at which time near equilibrium conditions were attained. Cells were then placed on ice, the binding medium was removed, and the monolayer was rinsed three times with 0.5 mL of cold binding buffer. The cells were subsequently lysed with 0.5 mL 5N NaOH and counted for radioactivity. For each tracer and in each experiment, the non-specific binding was determined as the radioactivity that bound in the presence of the same unlabeled peptide at a concentration of 1 μM, and was ˜1% of total radioactivity added for each tracer. The maximum specific binding (B0) was the total radioactivity bound in the absence of competing ligand, corrected for nonspecific binding, and for each tracer, ranged from 8% to 20% of the total radioactivity added. Nonlinear regression was used to calculate binding IC50 values (see below). Scatchard transformations of homologous competition binding data derived from studies with 26 fmol of ^125I-[Aib^1,3,Nle^8,Gln^10,Har^11,Ala^12,Trp^14, Arg^19,Tyr^21]rPTH(1-21) (SEQ. ID. NO. 36) were employed for estimations of apparent equilibrium dissociation constant (kDapps) and total number of ligand binding sites (Bmax), assuming a single class of binding sites and equal affinities of the iodinated and non iodinated ligand.
Data Calculation. Calculations were performed using Microsoft® Excel. Nonlinear regression analyses of binding and cAMP dose-response data were performed using the four-parameter equation: yp=Min+[(Max−Min)/(1+(IC50/x)^slope)]. The Excel Solver function was utilized for parameter optimization, as described previously (Carter, P. H., et al., Endocrinology 140: 4972-4981 (1999); Bowen, W. P., and Jerman, J. C., Trends in Pharmacol. Sci. 16: 413-417 (1995)). […]

hP1R-delNt = target: T2, hP1R-delNt (Homo sapiens, UniProt Q03431); test: cAMP stimulation in LdelNt-2 cells; type: cell-based
T2 construct: expressed in transfected cells
T2 sequence (Q03431 with tags, fused parts or gaps limits assumed): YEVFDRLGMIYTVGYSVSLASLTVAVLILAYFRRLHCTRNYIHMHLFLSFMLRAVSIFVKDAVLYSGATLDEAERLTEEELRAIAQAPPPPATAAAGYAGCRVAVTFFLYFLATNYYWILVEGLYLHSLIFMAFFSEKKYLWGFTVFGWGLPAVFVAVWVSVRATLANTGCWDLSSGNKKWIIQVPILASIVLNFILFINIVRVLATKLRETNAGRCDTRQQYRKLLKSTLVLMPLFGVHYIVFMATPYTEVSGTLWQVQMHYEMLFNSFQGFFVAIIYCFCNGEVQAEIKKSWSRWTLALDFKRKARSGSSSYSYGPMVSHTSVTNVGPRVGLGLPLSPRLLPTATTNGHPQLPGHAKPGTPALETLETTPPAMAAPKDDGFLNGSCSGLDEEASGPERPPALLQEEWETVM
Source text: as §1
(§2) cAMP Stimulation. Stimulation of cells with peptide analogs was performed in 24-well plates. Cells were rinsed with 0.5 mL of binding buffer (50 mM Tris-HCl, 100 mM NaCl, 5 mM KCl, 2 mM CaCl2, 5% heat-inactivated horse serum, 0.5% fetal bovine serum, adjusted to pH 7.5 with HCl) and treated with 200 μL of cAMP assay buffer (Delbecco's modified Eagle's medium containing 2 mM 3-isobutyl-1-methylxanthine, 1 mg/mL bovine serum albumin, 35 mM Hepes-NaOH, pH 7.4) and 100 μL of binding buffer containing varying amounts of peptide analog (final volume=300 μL). The medium was removed after incubation for 30 to 60 minutes at room temperature, and the cells were frozen on dry ice, lysed with 0.5 mL 50 mM HCl, and refrozen ([…]). The cAMP content of the diluted lysate was determined by radioimmunoassay. The EC50 response values were calculated using nonlinear regression (see below).
(§3) Data Calculation. Calculations were performed using Microsoft® Excel. Nonlinear regression analyses of binding and cAMP dose-response data were performed using the four-parameter equation: yp=Min+[(Max−Min)/(1+(IC50/x)^slope)]. The Excel Solver function was utilized for parameter optimization, as described previously (Carter, P. H., et al., Endocrinology 140: 4972-4981 (1999); Bowen, W. P., and Jerman, J. C., Trends in Pharmacol. Sci. 16: 413-417 (1995)). Differences between paired data sets were statistically evaluated using a one-tailed Student's t-test, assuming unequal variances for the two sets.
Agonist activities of selected analogs in cells expressing P1R-delNt were examined. This PTH-1 receptor construct lacks most of the N domain, but nevertheless mediates full agonist responses to N-terminally modified PTH analogs, and thus enables the relative roles of the receptor's N and J domains to the ligand interaction process to be evaluated. The clonal cell line LdelNT-2 was used, which was derived from LLC-PK, cells by stable transfection with a plasmid encoding the human P1R-delNt construct.

[3] = system: P1R (recombinant P1R chimera) in HKRK-B28 cells; test: cAMP stimulation in HKRK-B28 cells; type: cell-based, opposum/rat chimera
Source text: as §1, §2, §3

P1R [4] = target: T3, P1R (Homo sapiens, UniProt Q03431); details: literature; read-out: cAMP-signaling potency (EC50); cited from earlier work
T3 sequence (Q03431 27-593): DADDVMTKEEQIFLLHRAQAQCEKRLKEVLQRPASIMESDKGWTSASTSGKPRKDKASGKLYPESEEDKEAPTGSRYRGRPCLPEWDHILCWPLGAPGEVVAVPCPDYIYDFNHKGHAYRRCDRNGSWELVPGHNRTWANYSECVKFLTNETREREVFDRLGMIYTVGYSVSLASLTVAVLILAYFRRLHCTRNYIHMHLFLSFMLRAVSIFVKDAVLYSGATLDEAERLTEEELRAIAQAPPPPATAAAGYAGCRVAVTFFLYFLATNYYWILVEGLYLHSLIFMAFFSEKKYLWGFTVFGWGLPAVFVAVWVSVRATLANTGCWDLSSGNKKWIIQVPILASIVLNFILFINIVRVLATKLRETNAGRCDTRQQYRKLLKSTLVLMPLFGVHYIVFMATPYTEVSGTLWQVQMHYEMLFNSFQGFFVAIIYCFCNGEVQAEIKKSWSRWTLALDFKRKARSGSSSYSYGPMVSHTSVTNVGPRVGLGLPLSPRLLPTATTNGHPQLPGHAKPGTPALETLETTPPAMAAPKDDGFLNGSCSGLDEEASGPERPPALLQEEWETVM

Molecule: [Ac5c^1,Trp^2,Aib^3, M]PTH(1-14) (H-[Ac5c]W[Aib]EIQLMHQ[hArg]AKW-NH2; SMILES CC[C@H](C)[C@H](NC(=O)[C@H](CCC(=O)O)NC(=O)C(C)(C)NC(=O)[C@H](Cc1c[nH]c2ccccc12)NC(=O)C1(N)CCCC1)C(=O)N[C@@H](CCC(N)=O)C(=O)N[C@@H](CC(C)C)C(=O)N[C@@H](CCSC)C(=O)N[C@@H](Cc1c[nH]cn1)C(=O)N[C@@H](CCC(N)=O)C(=O)N[C@@H](CCCCNC(=N)N)C(=O)N[C@@H](C)C(=O)N[C@@H](CCCCN)C(=O)N[C@@H](Cc1c[nH]c2ccccc12)C(N)=O)
inhibition of the agonist activity of [Aib1,3,M]PTH(1-14) (P1R [1]): 50%

Molecule: CC[C@H](C)[C@H](NC(=O)[C@H](CCC(=O)O)NC(=O)C(CC)(CC)NC(=O)[C@@H](NC(=O)C(N)(CC)CC)C(C)C)C(=O)N[C@@H](CCC(N)=O)C(=O)N[C@@H](CC(C)C)C(=O)N[C@@H](CCSC)C(=O)N[C@@H](Cc1c[nH]cn1)C(=O)N[C@@H](CCC(N)=O)C(=O)N[C@@H](CCCCNC(=N)N)C(=O)N[C@@H](C)C(=O)N[C@@H](CCCCN)C(=O)N[C@@H](Cc1c[nH]c2ccccc12)C(N)=O [[Deg^1,3,M]PTH(1-14), [Deg^1,3,Gln^10,Har^11,Ala^12,Trp^14]PTH(1-14)NH2] (H-[Deg]V[Deg]EIQLMHQ[hArg]AKW-NH2)
P1R binding affinity (in words) ([2]; in words): bound with adequate affinity
binding affinity higher than that of parent [M]PTH(1-14) ([2]; relative to parent [M]PTH(1-14)): 50 fold
EC50 (hP1R-delNt): 1400 ± 500 nM
agonist behavior (in words) (hP1R-delNt): partial agonist behavior
increase in cAMP accumulation (Emax) over basal (hP1R-delNt): 23 fold
maximum cAMP response as percent of that attained by the parent peptide ([3]; HKRK-B28 cells): 45%
cAMP agonist activity / signaling potency (in words) [3]: true partial agonist for cAMP formation
cAMP agonist activity / signaling potency (in words) ([3]; listed as [Deg^1,3,Gln^10,Har^11,Ala^12,Trp^14]pTH(1-14)NH2): partial agonist response

Molecule: PTH(1-34)
EC50 (P1R [4]): ~2 nM

EC50 (hP1R-delNt): 6.4 ± 1.6 nM
Molecule: CC[C@H](C)[C@H](NC(=O)[C@H](CCC(=O)O)NC(=O)C(C)(C)NC(=O)[C@@H](NC(=O)C(C)(C)N)C(C)C)C(=O)N[C@@H](CCC(N)=O)C(=O)N[C@@H](CC(C)C)C(=O)N[C@@H](CCSC)C(=O)N[C@@H](Cc1c[nH]cn1)C(=O)N[C@@H](CCC(N)=O)C(=O)N[C@@H](CCCCNC(=N)N)C(=O)N[C@@H](C)C(=O)N[C@@H](CCCCN)C(=O)N[C@@H](Cc1c[nH]c2ccccc12)C(N)=O [[Aib^1,3,M]PTH(1-14), [Aib^1,3,Gln^10,Har^11,Ala^12,Trp^14]PTH(1-14)NH2] (H-[Aib]V[Aib]EIQLMHQ[hArg]AKW-NH2)
